Experimental data: the NIST ThermoML archive (doi:10.1016/j.fluid.2017.12.001)
Numbers after ± are expanded uncertainties.

Assay: xn = mol fraction of the nth substance listed
Conditions: 100.9 kPa, Liquid; for mass density: Vibrating tube method; for viscosity: Concentric cylinders viscometry; for speed of sound: Single path-length method

## CCCC(=O)[O-].CC[NH2+]CC [diethylammonium butanoate] + O
293.15 K, x1 = 0.6812
  mass density: 937.26 ± 0.55 kg/m3
293.15 K, x1 = 0.7974
  mass density: 923.05 ± 0.62 kg/m3
293.15 K, x1 = 0.974
  mass density: 918.5 ± 0.76 kg/m3
295.65 K, x1 = 0.0122
  viscosity: 1.53 ± 0.02 mPa·s
295.65 K, x1 = 0.0451
  viscosity: 4.05 ± 0.03 mPa·s
295.65 K, x1 = 0.0999
  viscosity: 10.38 ± 0.05 mPa·s
295.65 K, x1 = 0.143
  viscosity: 16.84 ± 0.07 mPa·s
295.65 K, x1 = 0.2051
  viscosity: 28.55 ± 0.13 mPa·s
295.65 K, x1 = 0.3064
  viscosity: 50.88 ± 0.21 mPa·s
295.65 K, x1 = 0.4879
  viscosity: 74.58 ± 0.58 mPa·s
295.65 K, x1 = 0.6684
  viscosity: 75.69 ± 0.69 mPa·s
295.65 K, x1 = 0.974
  viscosity: 63.97 ± 0.66 mPa·s
298.15 K, x1 = 0.0122
  viscosity: 1.43 ± 0.02 mPa·s
298.15 K, x1 = 0.0451
  viscosity: 3.69 ± 0.03 mPa·s
298.15 K, x1 = 0.0999
  viscosity: 9.31 ± 0.04 mPa·s
298.15 K, x1 = 0.143
  viscosity: 15.02 ± 0.07 mPa·s
298.15 K, x1 = 0.2051
  viscosity: 25.19 ± 0.12 mPa·s
298.15 K, x1 = 0.3064
  viscosity: 44.32 ± 0.23 mPa·s
298.15 K, x1 = 0.4879
  viscosity: 64.82 ± 0.43 mPa·s
298.15 K, x1 = 0.6684
  viscosity: 66.04 ± 0.53 mPa·s
298.15 K, x1 = 0.974
  viscosity: 56.14 ± 0.56 mPa·s
  speed of sound: 1417.5 ± 0.98 m/s
  mass density: 914.7 ± 0.76 kg/m3
298.15 K, x1 = 0.0123
  speed of sound: 1601.8 ± 0.22 m/s
  mass density: 1000.1 ± 0.4 kg/m3
298.15 K, x1 = 0.0453
  speed of sound: 1770.9 ± 0.25 m/s
  mass density: 1005.56 ± 0.4 kg/m3
298.15 K, x1 = 0.1005
  speed of sound: 1776.6 ± 0.29 m/s
  mass density: 1000.56 ± 0.4 kg/m3
298.15 K, x1 = 0.1439
  speed of sound: 1745.3 ± 0.34 m/s
  mass density: 988.22 ± 0.41 kg/m3
298.15 K, x1 = 0.2067
  speed of sound: 1690.3 ± 0.41 m/s
  mass density: 979.99 ± 0.41 kg/m3
298.15 K, x1 = 0.3096
  speed of sound: 1613.5 ± 0.49 m/s
  mass density: 965.6 ± 0.42 kg/m3
298.15 K, x1 = 0.4951
  speed of sound: 1523.9 ± 0.63 m/s
  mass density: 945.79 ± 0.47 kg/m3
298.15 K, x1 = 0.6812
  speed of sound: 1468.9 ± 0.75 m/s
  mass density: 933.71 ± 0.55 kg/m3
298.15 K, x1 = 0.7974
  speed of sound: 1455.8 ± 0.84 m/s
  mass density: 919.45 ± 0.62 kg/m3
300.65 K, x1 = 0.0122
  viscosity: 1.34 ± 0.02 mPa·s
300.65 K, x1 = 0.0451
  viscosity: 3.36 ± 0.03 mPa·s
300.65 K, x1 = 0.0999
  viscosity: 8.4 ± 0.04 mPa·s
300.65 K, x1 = 0.143
  viscosity: 13.44 ± 0.06 mPa·s
300.65 K, x1 = 0.2051
  viscosity: 22.34 ± 0.1 mPa·s
300.65 K, x1 = 0.3064
  viscosity: 38.93 ± 0.2 mPa·s
300.65 K, x1 = 0.4879
  viscosity: 56.68 ± 0.33 mPa·s
300.65 K, x1 = 0.6684
  viscosity: 57.86 ± 0.43 mPa·s
300.65 K, x1 = 0.974
  viscosity: 49.5 ± 0.51 mPa·s
303.15 K, x1 = 0.0122
  viscosity: 1.26 ± 0.02 mPa·s
303.15 K, x1 = 0.0451
  viscosity: 3.08 ± 0.02 mPa·s
303.15 K, x1 = 0.0999
  viscosity: 7.62 ± 0.04 mPa·s
303.15 K, x1 = 0.143
  viscosity: 12.08 ± 0.05 mPa·s
303.15 K, x1 = 0.2051
  viscosity: 19.91 ± 0.09 mPa·s
303.15 K, x1 = 0.3064
  viscosity: 34.33 ± 0.18 mPa·s
303.15 K, x1 = 0.4879
  viscosity: 49.68 ± 0.32 mPa·s
303.15 K, x1 = 0.6684
  viscosity: 50.88 ± 0.36 mPa·s
303.15 K, x1 = 0.974
  viscosity: 43.73 ± 0.45 mPa·s
  speed of sound: 1400.2 ± 0.98 m/s
  mass density: 910.9 ± 0.76 kg/m3
303.15 K, x1 = 0.0123
  speed of sound: 1607.5 ± 0.22 m/s
  mass density: 998.8 ± 0.4 kg/m3
303.15 K, x1 = 0.0453
  speed of sound: 1762.1 ± 0.25 m/s
  mass density: 1002.83 ± 0.4 kg/m3
303.15 K, x1 = 0.1005
  speed of sound: 1763.5 ± 0.29 m/s
  mass density: 997.23 ± 0.4 kg/m3
303.15 K, x1 = 0.1439
  speed of sound: 1731.1 ± 0.34 m/s
  mass density: 984.45 ± 0.41 kg/m3
303.15 K, x1 = 0.2067
  speed of sound: 1675.2 ± 0.41 m/s
  mass density: 976.3 ± 0.41 kg/m3
303.15 K, x1 = 0.3096
  speed of sound: 1597.6 ± 0.49 m/s
  mass density: 960.9 ± 0.42 kg/m3
303.15 K, x1 = 0.4951
  speed of sound: 1509.1 ± 0.63 m/s
  mass density: 941.96 ± 0.47 kg/m3
303.15 K, x1 = 0.6812
  speed of sound: 1452.3 ± 0.75 m/s
  mass density: 930.52 ± 0.55 kg/m3
303.15 K, x1 = 0.7974
  speed of sound: 1439.9 ± 0.84 m/s
  mass density: 915.75 ± 0.62 kg/m3
305.65 K, x1 = 0.0122
  viscosity: 1.19 ± 0.02 mPa·s
305.65 K, x1 = 0.0451
  viscosity: 2.84 ± 0.02 mPa·s
305.65 K, x1 = 0.0999
  viscosity: 6.89 ± 0.04 mPa·s
305.65 K, x1 = 0.143
  viscosity: 10.89 ± 0.05 mPa·s
305.65 K, x1 = 0.2051
  viscosity: 17.8 ± 0.08 mPa·s
305.65 K, x1 = 0.3064
  viscosity: 30.43 ± 0.16 mPa·s
305.65 K, x1 = 0.4879
  viscosity: 43.74 ± 0.28 mPa·s
305.65 K, x1 = 0.6684
  viscosity: 44.91 ± 0.35 mPa·s
305.65 K, x1 = 0.974
  viscosity: 38.76 ± 0.4 mPa·s
308.15 K, x1 = 0.0122
  viscosity: 1.12 ± 0.02 mPa·s
308.15 K, x1 = 0.0451
  viscosity: 2.62 ± 0.02 mPa·s
308.15 K, x1 = 0.0999
  viscosity: 6.28 ± 0.03 mPa·s
308.15 K, x1 = 0.143
  viscosity: 9.83 ± 0.05 mPa·s
308.15 K, x1 = 0.2051
  viscosity: 15.99 ± 0.07 mPa·s
308.15 K, x1 = 0.3064
  viscosity: 27.04 ± 0.14 mPa·s
308.15 K, x1 = 0.4879
  viscosity: 38.47 ± 0.24 mPa·s
308.15 K, x1 = 0.6684
  viscosity: 39.77 ± 0.31 mPa·s
308.15 K, x1 = 0.974
  viscosity: 34.5 ± 0.36 mPa·s
308.15 K, x1 = 0.0123
  speed of sound: 1611.9 ± 0.22 m/s
308.15 K, x1 = 0.0453
  speed of sound: 1753.1 ± 0.25 m/s
308.15 K, x1 = 0.1005
  speed of sound: 1750.2 ± 0.29 m/s
308.15 K, x1 = 0.1439
  speed of sound: 1716.8 ± 0.35 m/s
